Assay results taken from US8507411B2, “Neoglycorandomization and digitoxin analogs” (priority 2004, dated 2013).
Read-outs that look alike come from different tables or passages of the source.

Columns and labels:
HCT-116 = assay: High-throughput calcein AM cytotoxicity assay, HCT-116; type: cell-based, human
Description: (§1) Standard errors are depicted with error bars.

A549 = assay: High-throughput calcein AM cytotoxicity assay, A549; type: cell-based, human; conditions: read-out: IC50, A549
Description: as §1

NCI/ADR-RES [1] = assay: cells; type: cell-based, human
How it was run: (§2)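 Calcein fluorescence (485/535 nm) reports intracellular esterase activity of surviving cells after 72 h compound treatment. Each IC50 derives from at least six dose-response runs over a five-point two-fold dilution series.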

SF-268 = assay: cells; type: cell-based, human
How it was run: as §2

SK-OV-3 = assay: cells; type: cell-based, human
How it was run: as §2

NmuMG = assay: cells; type: cell-based, mouse; conditions: read-out: IC50, NmuMG
How it was run: as §2

SKOV-3 = assay: Cell titer-glo cytotoxicity assay, SKOV-3; type: cell-based, human
Description: (§3) FIG. 7 is a graphical summary of the results of the IC50 data from cytotoxicity assays. […] In the assay, live cells are quantified by measuring the luminescent signal resulting from the reaction between cellular ATP and luciferin to form oxyluciferin. The IC50 value for each compound represents at least four replicates of dose-response experiments conducted over six concentrations at two-fold dilutions.
(§4) The anticancer activities of ten panel analogues (3a-c,e,f and 4a-c,e,f) and digitoxin (1) were assessed using a high-throughput cytotoxicity assay on four human cancer cell lines, (FIG. 7) representing lung, colorectal, and ovarian carcinomas, as well as NCI/ADR-RES, a drug-resistant ovarian carcinoma line (For years, NCI/ADR-RES cells have been misidentified as drug-resistant MCF-7 breast adenocarcinoma cells, but recently this line has been shown definitively to be a drug-resistant line derived from OVCAR-8 ovarian adenocarcinoma cells. Liscovitch, M. et al., Cancer Lett. (2007) 245, 350-352.
(§5) All cell lines were maintained as previously reported (Langenhan, J. M. et al., Proc. Natl. Acad. Sci. (2005) 102, 12305-12310.) Cells were harvested by trypsinization using 0.25% trypsin and 0.1% EDTA and then counted in a Cellometer Auto T4 cell counter (Nexcelom, inc), before dilution for assay plating. Cell plating, compound handling and assay set up were performed as previously reported^1 except for the cells were plated in 50 μL volumes in 384 well clear bottom, tissue culture plates (Corning-Costar, Inc). Compounds were added from the 384-well compound stock plates at a 1:100 dilution using a Biomek FX liquid handler equipped with a 384 channel head (Beckman Coulter, Inc.). Cell titer-glo reagent (15 μL) (Promega Corporation, Inc.) was added and incubated for 10 min at room temperature with gentle agitation to lyse the cells. Each plate was read for luminescence. […] IC50 values were determined using XLFit 4.0 as previously reported (see Table 7).

NCI/ADR-RES [2] = assay: Cell titer-glo cytotoxicity assay, NCI/ADR-RES; type: cell-based, human
Description: as §3, §4, §5

HT-29 = assay: Cell titer-glo cytotoxicity assay, HT-29; type: cell-based, human; conditions: HT-29, Cell titer-glo
Description: as §3, §4
All cell lines were maintained as previously reported (Langenhan, J. M. et al., Proc. Natl. Acad. Sci. (2005) 102, 12305-12310.) Cells were harvested by trypsinization using 0.25% trypsin and 0.1% EDTA and then counted in a Cellometer Auto T4 cell counter (Nexcelom, inc), before dilution for assay plating. […] Each plate was read for luminescence. […]

[3] = HCT-116 cells, read-out: IC50, HCT-116
[4] = SF-268 cells, read-out: IC50, SF-268
[5] = SK-OV-3 cells, read-out: IC50, SK-OV-3
[6] = NmuMG mouse mammary normal epithelial control line
[7] = NCI/ADR-RES cells, read-out: IC50, NCI/ADR-RES
[8] = SKOV-3, Cell titer-glo, read-out: IC50

| Structure (SMILES) | IC50 (HCT-116; [3]) | IC50 (A549; A549 cells) | IC50 (NCI/ADR-RES [1]; NCI/ADR-RES, 72 h, calcein AM, read-out: IC50) | IC50 (SF-268; [4]) | IC50 (SK-OV-3; [5]) | IC50 (NmuMG; [6]) | IC50 (NCI/ADR-RES [1]; [7]) | IC50 (SKOV-3; [8]) | IC50 (NCI/ADR-RES [2]; Cell titer-glo, read-out: IC50) | IC50 (HT-29) | IC50 (HCT-116; Homo sapiens, HCT-116, HCT-116 cells, read-out: IC50, HCT-116) | IC50 (A549; Homo sapiens, A549, A549 cells) | IC50 (NCI/ADR-RES [1]; Homo sapiens, NCI/ADR-RES, read-out: IC50, NCI/ADR-RES) | IC50 (SF-268; Homo sapiens, SF-268, read-out: IC50, SF-268) | IC50 (SK-OV-3; Homo sapiens, SK-OV-3, read-out: IC50, SK-OV-3) | IC50 (NmuMG; Mus musculus) | IC50 (SKOV-3; Homo sapiens, SK-OV-3) | IC50 (NCI/ADR-RES [2]; Homo sapiens) | IC50 (HCT-116; HCT-116, 72 h, calcein AM, read-out: IC50) |
| --- | --- | --- | --- | --- | --- | --- | --- | --- | --- | --- | --- | --- | --- | --- | --- | --- | --- | --- | --- |
| CON([C@H]1CC[C@@]2(C)[C@H](CC[C@@H]3[C@@H]2CC[C@]2(C)[C@@H](C4=CC(=O)OC4)CC[C@]32O)C1)[C@@H]1O[C@H](CO)[C@@H](O)[C@H](O)[C@@H]1O [27β, D-mannoside] | 800 nM | 630 nM | 100 ± 10 nM | 2200 nM | 800 nM | 1000 nM | – | – | – | – | – | – | – | – | – | – | – | – | – |
| CON([C@H]1CC[C@@]2(C)[C@H](CC[C@@H]3[C@@H]2CC[C@]2(C)[C@@H](C4=CC(=O)OC4)CC[C@]32O)C1)[C@H]1OC[C@H](O)[C@@H](O)[C@@H]1O [23β, L-xyloside] | 100 nM | 79 nM | – | 490 nM | 220 nM | 57 nM | 138 nM | > 1000 nM | 72 nM | 66 nM | – | – | – | – | – | – | – | – | – |
| C[C@H]1O[C@@H](O[C@H]2[C@@H](O)C[C@H](O[C@H]3[C@@H](O)C[C@H](O[C@H]4CC[C@@]5(C)[C@H](CC[C@@H]6[C@@H]5CC[C@]5(C)[C@@H](C7=CC(=O)OC7)CC[C@]65O)C4)O[C@@H]3C)O[C@@H]2C)C[C@H](O)[C@@H]1O [digitoxin] | – | – | – | – | – | – | – | – | – | – | 170 nM | 280 nM | 220 nM | 1500 nM | 700 nM | > 25000 nM | > 1000 nM | 69 nM | – |
| CON([C@H]1CC[C@@]2(C)[C@H](CC[C@@H]3[C@@H]2CC[C@]2(C)[C@@H](C4=CC(=O)OC4)CC[C@]32O)C1)[C@H]1OC[C@H](O)[C@H](O)[C@@H]1O [5β, L-riboside] | 18 nM | 33 nM | – | 230 nM | 45 nM | 31 nM | 32 nM | > 1000 nM | 45 nM | 80 nM | – | – | – | – | – | – | – | – | 18 ± 2 nM |
